Structures are written as SMILES.

In this experiment the target is T1, WT-PMM2 (Homo sapiens, UniProt O15305).
T1 construct: His6 (N); made in house; host or cells: E. coli BL21 Star DE3
T1 sequence (O15305 1-246): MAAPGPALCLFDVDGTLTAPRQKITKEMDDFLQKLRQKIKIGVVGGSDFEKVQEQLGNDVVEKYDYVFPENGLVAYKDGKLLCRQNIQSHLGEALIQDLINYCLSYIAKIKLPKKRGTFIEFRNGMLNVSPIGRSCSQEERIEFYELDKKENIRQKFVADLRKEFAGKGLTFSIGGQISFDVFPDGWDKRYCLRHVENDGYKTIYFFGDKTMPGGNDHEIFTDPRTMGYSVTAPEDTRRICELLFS
Description: High-throughput differential scanning fluorimetry (DSF) screening, thermal denaturation. The following applies: 0.08 mg/mL of compound, 4% DMSO, vs DMSO control; read-out: protein Tm is increased (ΔTm). Format: binding. The procedure: 10,000 molecular compounds from the MyriaScreen (Sigma-Aldrich) diversity collection were screened by determining the stabilization induced by the binding of different ligands (potential pharmacological chaperones) to the purified recombinant protein. The identification of ligands that stabilize WT-PMM2 thermally, was done by monitoring the thermal denaturation. The screening was performed by monitoring a shift in the fluorescence intensity at 610 nm using the LightCycler A480 (Roche).
PMM2 proteins were expressed in E.coli (BL21 Star™DE3 One Shot® Invitrogen). […]
Protein purification was performed using the ÄKTA Prime System (GE Healthcare, Little Chalfont, UK) at 4°C. […] The pure protein concentration was estimated by measuring the absorbance at 280 nm in a Nanodrop spectrophotometer (Thermo Scientific, Waltham, MA, USA) using the theoretical molar extinction coefficient estimated from the amino acid composition of HisPMM2 (23755 M^-1 cm^-1).
10,000 compounds of molecular weight ranging from 220 to 547 Da from the MyriaScreen diversity collection, dissolved in DMSO (Sigma Aldrich, St. Louis, MO, USA) to a final concentration of 2 mg/mL, were screened by DSF for identification of ligands that stabilize WT-PMM2 thermally. […] The experimental unfolding curves were then smoothed, normalized, and analyzed using in-house software. […]
On the technique in general: Differential scanning fluorimetry follows unfolding on heating by fluorescence.

Consider `O=C(Nc1cccc(Cl)c1)N(c1ccccn1)c1ccccn1` [Compound A, 3-(3-Chloro-phenyl)-1,1-di-pyridin-2-yl-urea], for which the ΔTm (as a rule, the change in melting temperature against a reference sample) at 80 µg/mL was 1.1 °C.
